Reference: patent US20040249122A1, “Cationic, amphipathic beta-sheet peptides and uses thereof” (priority 2003, published 2004)
≈ marks a conversion by molar mass, not a printed value. Entries after “also recorded” stand apart in the source; their conditions may differ. Where a SMILES comes first, the peptide text is derived from it. The star is where a group is joined. Octanoyl = CCCCCCCC(=O)*

Key:
[1] = Peptide-induced leakage from calcein-loaded LUV
Protocol: Peptide-Induced Leakage from Calcein-Loaded LUV. The ability of the peptides to release calcein (MW 623) from LUV of varying lipid composition was compared. LUV were prepared as above, except that-the buffer consisted of 50 mM HEPES, 100 mM NaCl, 0.3 mM EDTA, 80 mM calcein, pH 7.4. Calcein-loaded vesicles were separated from free calcein by size-exclusion chromatography using a Sephadex G-50 column and calcein-free buffer. Calcein leakage was monitored using a Perkin-Elmer LS-500 luminescence spectrometer by measuring the time-dependent increase in fluorescence of calcein (excitation=490 nm, emission=520 nm). LUV containing 8 nmoles of lipid were added to 1.5 mL of buffer in a stirred cuvet at 25° C. An aliquot of peptide was added to achieve the desired lipid-to-peptide ratio (256 to 8). Complete leakage was determined by the addition of 20 μL of 10% Triton X-100. Each value represents at least nine different measurements using at least three different LUV preparations.

[2] = tested on: E. coli, S. aureus, and P. aeruginosa; format: cell-based
Protocol: Antimicrobial and Hemolytic Assays. Antimicrobial susceptibility testing against Staphylococcus aureus (ATCC 29213), Escherichia coli (ATCC 25922), and Pseudomonas aeruginosa (ATCC 27853) was performed using a modification of the National Committee for Clinical Laboratory Standards microdilution broth assay (22). Mueller-Hinton broth (BBL) was used for diluting the peptide stock solution and for diluting the bacterial inoculum. The inoculum was prepared from mid-logarithmic phase cultures. Microtiter plate wells received aliquots-of 100 μL each of the inoculum and peptide dilution. The final concentration of peptide solution ranged-from 0.25 to 256 μg/mL in two-fold dilutions. The final concentration of bacteria in the wells was 5×10^5 CFU/mL. Peptides were tested in duplicate. In addition to the test peptide, three standard peptides and a non-treated growth control were included to validate the assay. The microtiter plates were incubated overnight at 37° C. and the absorbance was measured at 600 nm. […] Hemolysis at peptide concentrations of 500 μg/mL was determined using a 5% suspension of freshly drawn human erythrocytes, which had been washed twice in phosphate buffered saline. After incubation at 37° C. for 30 min, the suspension was centrifuged at 10,000×g for 10 min and the absorbance at 400 nm was measured. Complete hemolysis was determined by adding 0.2% Triton X-100 in place of the peptide.

[3] = tested on: Staphylococcus aureus (ATCC 29213); format: cell-based; conditions: ATCC 29213
Protocol: (§1) Antimicrobial and Hemolytic Assays. Antimicrobial susceptibility testing against Staphylococcus aureus (ATCC 29213), Escherichia coli (ATCC 25922), and Pseudomonas aeruginosa (ATCC 27853) was performed using a modification of the National Committee for Clinical Laboratory Standards microdilution broth assay (22). Mueller-Hinton broth (BBL) was used for diluting the peptide stock solution and for diluting the bacterial inoculum. The inoculum was prepared from mid-logarithmic phase cultures. […] The final concentration of peptide solution ranged-from 0.25 to 256 μg/mL in two-fold dilutions. The final concentration of bacteria in the wells was 5×10^5 CFU/mL. Peptides were tested in duplicate. In addition to the test peptide, three standard peptides and a non-treated growth control were included to validate the assay. The microtiter plates were incubated overnight at 37° C. and the absorbance was measured at 600 nm. […] After incubation at 37° C. for 30 min, the suspension was centrifuged at 10,000×g for 10 min and the absorbance at 400 nm was measured.

[4] = tested on: Escherichia coli (ATCC 25922); format: cell-based; conditions: ATCC 25922
Protocol: as §1

[5] = tested on: Pseudomonas aeruginosa (ATCC 27853); format: cell-based; conditions: ATCC 27853
Protocol: as §1

In the case of `CC(C)C[C@H](NC(=O)[C@H](CCCCN)NC(=O)[C@H](CC(C)C)NC(=O)[C@H](CCCCN)NC(=O)[C@H](CC(C)C)NC(=O)[C@H](CCCCN)NC(=O)[C@H](CC(C)C)NC(=O)[C@H](CCCCN)NC(=O)[C@H](CC(C)C)NC(=O)[C@H](CCCCN)NC(=O)[C@H](Cc1c[nH]c2ccccc12)NC(=O)[C@H](CCCCN)NC(=O)[C@H](CC(C)C)NC(=O)[C@H](CCCCN)NC(=O)[C@H](CC(C)C)NC(=O)[C@H](CCCCN)NC(=O)[C@H](CC(C)C)NC(=O)[C@@H](N)CCCCN)C(N)=O` [KL-18, K L K L K L K W K L K L K L K L K L-NH2] (H-KLKLKLKWKLKLKLKLKL-NH2; N-terminus assumed), the “calcein leakage from LUV (in words)” value ([1]; LUVs from E. coli lipids) is reported as “highly effective”, the “calcein leakage from LUV (in words)” value ([1]; POPC (PC) LUV) is reported as “most potent; also recorded: quite lytic” and the MIC values [2] is reported as 4 to 16 µg/mL. The “MIC Staph. aureus” value [3] was 16 µg/mL (≈ 7.07 µM), the “MIC E. coli” value [4] was 64 µg/mL (≈ 28.3 µM) and the “MIC Pseud. aerug” value [5] was 32 µg/mL (≈ 14.1 µM).

In the case of `CC(C)C[C@H](NC(=O)CNC(=O)[C@H](C)NC(=O)[C@H](CC(C)C)NC(=O)[C@H](CCCCN)NC(=O)[C@H](C)NC(=O)[C@H](CCCCN)NC(=O)[C@H](CC(C)C)NC(=O)CNC(=O)[C@H](C)NC(=O)[C@H](Cc1c[nH]c2ccccc12)NC(=O)[C@H](CCCCN)NC(=O)[C@H](C)NC(=O)[C@H](CCCCN)NC(=O)[C@H](CC(C)C)NC(=O)CNC(=O)[C@H](C)NC(=O)[C@H](CC(C)C)NC(=O)[C@@H](N)CCCCN)C(=O)N[C@@H](CCCCN)C(=O)N[C@@H](C)C(N)=O` [1,6-Hept, KLAGLKAKWAGLKAKLAGLKA-NH2] (H-KLAGLKAKWAGLKAKLAGLKA-NH2; N-terminus assumed), the “antimicrobial activity (in words)” value [2] is reported as “devoid of antimicrobial activity”, the “MIC Staph. aureus” value [3] is reported as greater than 256 µg/mL and the “MIC E. coli” value [4] is reported as greater than 256 µg/mL. The “MIC Pseud. aerug” value [5] was greater than 256 µg/mL.

For `CC(C)C[C@H](NC(=O)CNC(=O)[C@H](C)NC(=O)[C@H](CCCCN)NC(=O)[C@H](CC(C)C)NC(=O)[C@H](CCCCN)NC(=O)[C@H](C)NC(=O)[C@H](CC(C)C)NC(=O)CNC(=O)[C@H](C)NC(=O)[C@H](CCCCN)NC(=O)[C@H](Cc1c[nH]c2ccccc12)NC(=O)[C@H](CCCCN)NC(=O)[C@H](C)NC(=O)[C@H](CC(C)C)NC(=O)CNC(=O)[C@H](C)NC(=O)[C@H](CCCCN)NC(=O)[C@H](CC(C)C)NC(=O)[C@@H](N)CCCCN)C(=O)N[C@@H](C)C(N)=O` [1,3-Hept, KLKAGLAKWKAGLAKLKAGLA-NH2] (H-KLKAGLAKWKAGLAKLKAGLA-NH2; N-terminus assumed), the “antimicrobial activity (in words)” value [2] was “slightly active”, the “MIC Staph. aureus” value [3] was 256 µg/mL (≈ 120 µM) and the “MIC E. coli” value [4] was 32 µg/mL (≈ 15 µM). For the same compound, the “MIC Pseud. aerug” value [5] was greater than 256 µg/mL.

With `CCCCCCCC(=O)N[C@@H](CCCCN)C(=O)N[C@@H](CC(C)C)C(=O)N[C@@H](CCCCN)C(=O)N[C@@H](Cc1c[nH]c2ccccc12)C(=O)N[C@@H](CCCCN)C(=O)N[C@@H](CC(C)C)C(=O)N[C@@H](CCCCN)C(=O)N[C@@H](CC(C)C)C(=O)N[C@@H](CCCCN)C(=O)N[C@@H](CC(C)C)C(=O)N[C@@H](CCCCN)C(N)=O` [Oct-Beta-11, Oct- K L K W K L K L K L K-NH2] (Octanoyl-KLKWKLKLKLK-NH2) the “antimicrobial activity (in words)” value [2] was “reasonable antimicrobial activity”, the “MIC Staph. aureus” value [3] was 4 µg/mL (≈ 2.58 µM) and the “MIC E. coli” value [4] was 16 µg/mL (≈ 10.3 µM). The “MIC Pseud. aerug” value [5] was 8 µg/mL (≈ 5.16 µM).

For `CC(C)C[C@H](NC(=O)CNC(=O)[C@H](C)NC(=O)[C@H](CC(C)C)NC(=O)[C@H](CCCCN)NC(=O)[C@H](CCCCN)NC(=O)[C@H](C)NC(=O)[C@H](CC(C)C)NC(=O)CNC(=O)[C@H](C)NC(=O)[C@H](Cc1c[nH]c2ccccc12)NC(=O)[C@H](CCCCN)NC(=O)[C@H](CCCCN)NC(=O)[C@H](C)NC(=O)[C@H](CC(C)C)NC(=O)CNC(=O)[C@H](C)NC(=O)[C@H](CC(C)C)NC(=O)[C@@H](N)CCCCN)C(=O)N[C@@H](C)C(=O)N[C@@H](CCCCN)C(N)=O` [1,7-Hept, KLAGLAKKWAGLAKKLAGLAK-NH2] (H-KLAGLAKKWAGLAKKLAGLAK-NH2; N-terminus assumed), the “antimicrobial activity (in words)” value [2] was “relatively low MIC values”, the “MIC Staph. aureus” value [3] was 16 µg/mL (≈ 7.49 µM) and the “MIC E. coli” value [4] was 8 µg/mL (≈ 3.75 µM). The “MIC Pseud. aerug” value [5] was 16 µg/mL (≈ 7.49 µM).

For `CC(C)C[C@H](NC(=O)[C@H](CCCCN)NC(=O)[C@H](CC(C)C)NC(=O)[C@H](CCCCN)NC(=O)[C@H](CC(C)C)NC(=O)[C@H](CCCCN)NC(=O)[C@H](Cc1c[nH]c2ccccc12)NC(=O)[C@H](CCCCN)NC(=O)[C@H](CC(C)C)NC(=O)[C@H](CCCCN)NC(=O)[C@H](CC(C)C)NC(=O)[C@H](CCCCN)NC(=O)[C@H](CC(C)C)NC(=O)[C@@H](N)CCCCN)C(N)=O` [KL-14, K L K L K L K W K L K L K L-NH2] (H-KLKLKLKWKLKLKL-NH2; N-terminus assumed), the “calcein leakage from LUV (in words)” value ([1]; LUVs from E. coli lipids) was “highly effective”, the “calcein leakage from LUV (in words)” value ([1]; POPC (PC) LUV) was “quite lytic” and the MIC values [2] was 4 to 16 µg/mL. The “MIC Staph. aureus” value [3] was 16 µg/mL (≈ 8.99 µM), the “MIC E. coli” value [4] was 32 µg/mL (≈ 18 µM) and the “MIC Pseud. aerug” value [5] was 16 µg/mL (≈ 8.99 µM).

For `CC[C@H](C)[C@H](NC(=O)[C@H](C)NC(=O)CNC(=O)[C@H](CCCCN)NC(=O)[C@@H](NC(=O)[C@H](CCCCN)NC(=O)[C@@H](NC(=O)[C@H](C)NC(=O)CNC(=O)[C@H](CCCCN)NC(=O)[C@H](Cc1c[nH]c2ccccc12)NC(=O)[C@H](CCCCN)NC(=O)[C@@H](NC(=O)[C@H](C)NC(=O)CNC(=O)[C@H](CCCCN)NC(=O)[C@@H](NC(=O)[C@@H](N)CCCCN)[C@@H](C)CC)[C@@H](C)CC)[C@@H](C)CC)[C@@H](C)CC)C(N)=O` [1,3-Hex, K I K G A I K W K G A I K I K G A I-NH2] (H-KIKGAIKWKGAIKIKGAI-NH2; N-terminus assumed), the “antimicrobial activity (in words)” value [2] was “appreciable antimicrobial activity”, the “MIC Staph. aureus” value [3] was 32 µg/mL (≈ 16.6 µM) and the “MIC E. coli” value [4] was 8 µg/mL (≈ 4.16 µM). For the same compound, the “MIC Pseud. aerug” value [5] was 16 µg/mL (≈ 8.32 µM).

With `CC(C)C[C@H](NC(=O)CNC(=O)[C@H](CCCCN)NC(=O)[C@H](C)NC(=O)[C@H](CC(C)C)NC(=O)[C@H](CCCCN)NC(=O)[C@H](C)NC(=O)[C@H](CC(C)C)NC(=O)CNC(=O)[C@H](CCCCN)NC(=O)[C@H](C)NC(=O)[C@H](Cc1c[nH]c2ccccc12)NC(=O)[C@H](CCCCN)NC(=O)[C@H](C)NC(=O)[C@H](CC(C)C)NC(=O)CNC(=O)[C@H](CCCCN)NC(=O)[C@H](C)NC(=O)[C@H](CC(C)C)NC(=O)[C@@H](N)CCCCN)C(=O)N[C@@H](C)C(N)=O` [1,4-Hept, KLAKGLAKWAKGLAKLAKGLA-NH2] (H-KLAKGLAKWAKGLAKLAKGLA-NH2; N-terminus assumed) the “antimicrobial activity (in words)” value [2] was “relatively low MIC values”, the “MIC Staph. aureus” value [3] was 8 to 16 µg/mL and the “MIC E. coli” value [4] was 8 µg/mL (≈ 3.75 µM). For the same compound, the “MIC Pseud. aerug” value [5] was 32 µg/mL (≈ 15 µM).

In the case of `CCCCCCCC(=O)N[C@@H](CCCCN)C(=O)N[C@@H](Cc1c[nH]c2ccccc12)C(=O)NCC(=O)N[C@@H](C)C(=O)N[C@@H](CCCCN)C(=O)N[C@H](C(N)=O)[C@@H](C)CC` [Oct-KIGAKI-6, Oct- K W G A K I-NH2] (Octanoyl-KWGAKI-NH2), the “antimicrobial activity (in words)” value [2] is reported as “no activity”, the “MIC Staph. aureus” value [3] is reported as greater than 256 µg/mL and the “MIC E. coli” value [4] is reported as greater than 256 µg/mL. The “MIC Pseud. aerug” value [5] was greater than 256 µg/mL.
